Reference: paper PMC10609173, “Antiplasmodial and Antileishmanial Activities of a New Limonoid and Other Constituents from the Stem Bark of Khaya senegalensis” (Molecules, 2023)
≈ marks a conversion by molar mass, not a printed value.

What was measured:
[1] = set-up: method as in PMID 30663371; settings: limonoid from Meliaceae; cited from earlier work
[2] = set-up: method as in PMID 30663371; settings: limonoid from Meliaceae; cited from earlier work; remark: listed apart in the source
[3] = tested on: multidrug-resistant Dd2 strain of Plasmodium falciparum (PfDd2); test: Antiplasmodial SYBR Green I fluorescence assay, PfDd2 strain; assay type: cell-based
Source text: (§1) The parasite strains used in this study are continuously cultured at the Antimicrobial and Biocontrol Agents Unit of the University of Yaoundé I, and were graciously provided by BEI Resources (https://www.beiresources.org (accessed on 16 February 2019)). They comprise the Leishmania donovani strain (1S(MHOM/SD/62/1S), the multiresistant (PfDd2), and the chloroquine-sensitive (Pf3D7-(MRA-102)) strains of Plasmodium falciparum. RPMI 1640 media supplemented with 0.2% sodium bicarbonate (Sigma Aldrich, Billings, MT, USA), 0.5% Albumax II (Gibco), 1% hypoxanthine 100X (Gibco, Billings, MT, USA), 25 mM HEPES, and 0.04% gentamicin (Sigma Aldrich) was used to sustain P. falciparum strains in sterile petri dishes. Fresh red blood cells from healthy O^+ human volunteers were also added to the medium. These cells were suspended at 4% hematocrit (v/v) and incubated at 37 °C in a humidified environment with 5% CO2. To regularly maintain the culture, fresh medium was added to the culture every day. Thin blood smears stained with 10% Giemsa were used to microscopically monitor cell-cycle transition and parasitemia under immersion oil.
(§2) The antiplasmodial efficacy of the samples was evaluated using the SYBR Green I-based fluorescence assay, as previously reported by Smilkstein et al., on a sorbitol-synchronized ring stage culture of Plasmodium falciparum (PfDd2 and Pf3D7 strains). The test relies on the development of intense fluorescence following SYBR green binding to the exposed DNA found in wells containing healthy cells. Ninety microliters of parasites prepared with 1% hematocrit and 2% parasitemia and 10 μL of test sample extracts, fractions, isolated chemicals, chloroquine, and artemisinin were each added in triplicate into wells of a flat-bottomed microplate. The final test concentration values for the samples varied from 50 μg/mL-0.08 μg/mL and 100 μg/mL-0.16 μg/mL for extract/fractions. Following a 72 h incubation at 37 °C, 100 μL of SYBR Green I solution prepared with lysis buffer (0.2 μL of 10,000 SYBR Green I per mL of lysis buffer) made of EDTA (5 mM), Tris (20 mM; pH 7.5), Triton X-100 (0.08%; v/v), and saponin (0.008%; m/v) was added to each well. Fluorescence measurements were taken using an Infinite M200 microplate reader (Tecan, MT, USA) at emission and excitation wavelengths of 538 and 485 nm, respectively.
(§3) The resulting fluorescence readings were used to calculate the growth inhibition percentages relative to the negative control for each sample and for each of the tested doses. GraphPad Prism 8.0 software was used to generate concentration-response curves from the nonlinear regression fit to determine the median inhibitory or cytotoxic concentration (IC50/CC50). The resistance index (RI) for antiplasmodial tests was calculated as the ratio between the samples’ IC50 values for the chloroquine-sensitive strain 3D7 and the multiresistant strain Dd2 [69]. Inhibitors with an RI value below 1 were considered to act preferentially on the resistant strain. Based on each inhibitor’s antiparasitic efficacy (IC50) and cell toxicity (CC50), selectivity indices (SI) were calculated [SI = CC50 (RAW)/IC50 (Parasites)]. Samples were classified as poorly toxic to RAW cells if their SI values were greater than 10 [70].

[4] = tested on: promastigote form of Leishmania donovani (1S(MHOM/SD/62/1S)); test: Antileishmanial resazurin-based assay on promastigotes; assay type: cell-based
Method: A T-75 cm^2 cell culture flask was filled with complete Medium 199 [M199 supplemented with 10% heat-inactivated fetal bovine serum (HIFBS) and 100 IU/mL penicillin/streptomycin (Sigma, Darmstadt, Germany)] and used to grow the promastigote forms of Leishmania donovani. Every 72 h, flasks were subcultured and incubated at 28 °C.
The resazurin-based assay was used to evaluate the antileishmanial activity of the extract (100 μg/mL–0.16 μg/mL), major fractions (100 μg/mL–0.16 μg/mL), and isolated compounds (50 μg/mL–0.08 μg/mL) against the promastigote form of Leishmania donovani. Briefly, 10 μL of inhibitors at various triplicate doses (as prescribed for the antiplasmodial assay) were added to 90 μL of promastigotes from a logarithmic phase culture at a density of 4.10^5 parasites/mL. The plates were incubated for 28 h at 28 °C, and 10 μL of resazurin solution (Sigma, Darmstadt, Germany) was added. Amphotericin B (Sigma, Darmstadt, Germany) (10 μg–0.016 μg/mL) and 0.1% DMSO-treated wells were used as the […], respectively. After a further 44 h of incubation, plates were read using a Magelan Infinite M200 fluorescence plate reader (Tecan, Männedorf, Switzerland) at excitation and emission wavelengths of 530 and 590 nm, respectively.
as §3

[5] = set-up: method as in PMID 36249737, PMID 20162079; settings: 400 mg/kg; from leaf extract of Osyris quadripartita; cited from earlier work
[6] = Cytotoxicity assay (resazurin) on RAW 264.7 macrophages; assay type: cell-based, murine; settings: mouse, RAW 264.7 macrophage cells; RAW 264.7 macrophages, 48 h incubation, resazurin; read-out: Cytotoxicity on RAW 264.7 Cells CC50 ± SD
Method: The murine macrophage RAW 264.7 cell line was grown in DMEM (Dulbecco’s modified Eagle’s medium) containing 1% penicillin-streptomycin, 1% nonessential amino acids (NEA), and 10% HIFBS at 37 °C, and 5% CO2 in a humidified environment. A reverse Etaluma fluorescence microscope was used to view the cells every day, and the growth media was replaced every 72 h. At 80% confluence, cells were isolated using 0.25% Trypsine-EDTA (Gibco, MT, USA).
The murine macrophages, RAW 264.7 cells, were plated into a 96-well cell culture treated flat-bottomed plate ([…], Inc., Newton, NC 28658, USA) at a density of 10 × 10^4 cells/100 μL/well and incubated overnight to enable cell adhesion. A fresh complete medium containing serially diluted concentrations of crude extract, fractions, and compounds was used to replace the previous medium. The final assay concentration values for extracts/fractions and compounds varied from 400 μg/mL to 0.8 μg/mL and 100–0.16 μg/mL, respectively. Podophyllotoxin (Sigma-Aldrich, Munich, Germany) was used as a positive control at a maximum dose of 10 μM. After 48 h of incubation, 10 μL of resazurin solution (0.15 mg/mL dissolved in PBS) was added to each well, and the plates were incubated for an additional 4 h. Fluorescence data were finally recorded with a Magellan Infinite M200 plate reader (Tecan, Germany) at excitation and emission wavelengths of 530 nm and 590 nm, respectively.
as §3

promastigote = tested on: promastigote; set-up: method as in PMID 24949478; settings: isolate from Canarium patentinervium; cited from earlier work
[7] = tested on: chloroquine-sensitive 3D7 strain of Plasmodium falciparum (Pf3D7); test: Antiplasmodial SYBR Green I fluorescence assay, Pf3D7 strain; assay type: cell-based; settings: 3D7, Pf3D7 strain, ring stage, 72 h, read-out: Antiplasmodial Activity Pf3D7 IC50 ± SD
Source text: as §1, §2, §3

Compound: trigilgianin
- IC50, antileishmanial activity [1]: 6.044 µg/mL

Compound: CC(=O)O[C@@H]1C[C@H]2C(C)(C)OC(=O)C=C[C@]2(C)[C@H]2CC[C@@]3(C)[C@@H](c4ccoc4)OC(=O)[C@H]4O[C@]43[C@@]21C [7α-obacunyl acetate]
- IC50, antiplasmodial activity [2]: 5.14 µg/mL

Compound: Oc1cc(O)c2c(c1)O[C@H](c1ccc(O)c(O)c1)[C@@H](O)C2 [Catechin (9), catechin]
- Antiplasmodial Activity PfDd2 IC50 ± SD ([3]; PfDd2 strain, ring stage, 72 h): 2.93 ± 0.02 µg/mL
- IC50 ([3]; Plasmodium falciparum, DD2, 72 h, read-out: Antiplasmodial Activity PfDd2 IC50 ± SD, PfDd2 strain, ring stage, 72 h): 2.95 µg/mL (≈ 10.2 µM)
- IC50 ([4]; Leishmania donovani, L. donovani promastigotes, 28 °C, read-out: Antileishmanial Activity IC50 ± SD): 27 ± 0.7 µg/mL (≈ 92.9 µM)
- Antileishmanial Selectivity (SI) ([4]; SI = CC50 against macrophages/IC50 against promastigotes): >14.83
- antimalarial effect, suppression value [5]: 64.26%
- CC50 at 48 h [6]: > 400 µg/mL
- IC50, antipromastigote activity (promastigote): 478.93 ± 0.28 µg/mL (≈ 1650 µM)
- IC50 [7]: 111.96 ± 0.04 µg/mL (≈ 386 µM)
